Assay results published in ChEMBL document CHEMBL1154446, “Synthesis and preliminary biological evaluation of new carbon-11 labeled tetrahydroisoquinoline derivatives as SERM radioligands for PET imaging of ER expression in breast cancer” (Eur J Med Chem, 2008).
Active and inactive are the calls of the source. The calls are words filed in the database; no cut-off is given here.

Tests used:
Type in all cases: functional, cell-based
[1] = test system: MCF7; experiment: Antiproliferative activity against human MCF7 cells at >0.625 to 10 nM after 24 hrs by MTS assay
[2] = test system: MCF7; experiment: Antiproliferative activity against human MCF7 cells at 0.3125 to 0.625 nM after 24 hrs by MTS assay
[3] = test system: MCF7; experiment: Antiproliferative activity against human MCF7 cells at 0.625 nM after 24 hrs by MTS assay

| SMILES | Activity [1] | Activity [2] | Activity [3] |
| --- | --- | --- | --- |
| COC(=O)C1CCN(CCOc2ccc(C3(C)c4ccc(O)cc4CCN3c3ccc(Cl)cc3)cc2)CC1 (stereo unspecified) | Active | Active |  |
| COC(=O)C1CCN(CCOc2ccc(C3(C)c4ccc(O)cc4CCN3c3ccc(F)cc3)cc2)CC1 (stereo unspecified) | Active |  | inactive |
| CCC(=C(c1ccc(O)cc1)c1ccc(OCCN(C)C)cc1)c1ccccc1 | Active |  | Active |
